Test results reported in US4245099A, “2-Acyl-6-aminomethylphenol derivatives” (Ono Pharmaceutical Co., Ltd., priority 1978, dated 1981).
Where a name gives a salt, the structure may show the parent alone.

Key:
[1] = system: Carrageenan-Induced Edema in Rat Paws; assay: Carrageenan-induced edema in rat paws (anti-inflammatory effect); assay type: in vivo; conditions: 3 h, oral, carrageenan injected one hour after dosing, swelling measured at third hour of carrageenan injection, read-out: % Inhibition of Paw Edema
Method: For example, in a laboratory experiment, one hour after oral administration with these compounds, the rats were subcutaneously injected with 0.1 ml of 1% carrageenan suspension on the plantar surface of the right hind paw. The swelling was measured at the third hour of carrageenan injection. Anti-inflammatory effect of the compounds was determined as percentage inhibition of the swelling, taking the swelling in the control groups as 100%.

ulcer in rats = assay: Sign of ulcer upon oral administration in rats; assay type: in vivo, rat; conditions: 200 mg/kg
[2] = system: acetic acid stretching in mice; assay: Acetic acid stretching method (analgesic effect in mice); assay type: in vivo; conditions: male mice, oral, 0.6% acetic acid i.p. 30 minutes later, counted for 10 minutes from 5 minutes after injection
Method: Male mice were given orally with these compounds and 30 minutes later injected intraperitoneally with 0.1 ml/10 g of 0.6% acetic acid. The number of stretching was countered for 10 minutes from 5 minutes after injection of acetic acid. The value was expressed in the percentage of control.

[3] = system: pain threshold of inflamed foot (beer yeast) in rats; assay: Randall-Selitto method (analgesic effect in rat); assay type: in vivo; conditions: male rats, oral, 2 hours after 20% beer yeast into subplantar area
Method: Male rats were administered orally with 2-propionyl-4-tert-butyl-6-aminomethylphenol hydrochloride 2 hours after injection of 0.1 ml of 20% suspension beer yeast into subplantar area of one hind paw. Pain threshold determination was made on the normal and inflamed foot, using apparatus similar to that described by Randall-Selitto. Pain threshold change was expressed as percentage of control.

Row | SMILES | inhibition in vivo at 30 mg/kg [1] [%] | further results
1 | CC(=O)c1c(O)c(CN)cc2c1CCCC2 [1-Acetyl-3-aminomethyl-5,6,7,8-tetrahydro-2-naphthol hydrochloride] | 55.3 | –
2 | CC(=O)c1cc(C(C)(C)C)cc(CN)c1O [2-Acetyl-4-tert-butyl-6-aminomethylphenol hydrochloride] | 46.7 | –
3 | CC(C)(C)c1cc(CN)c(O)c(C(=O)Cc2ccccc2)c1 [2-Phenylacetyl-4-tert-butyl-6-aminomethylphenolhydrochloride] | 20.3 | –
4 | CSCCC(=O)c1cc(C(C)(C)C)cc(CN)c1O [2-(3-Methylthiopropionyl)-4-tert-butyl-6-aminomethylphenol hydrochloride] | 29.3 | –
5 | CC(C)(C)c1cc(CN)c(O)c(C(=O)c2ccccc2)c1 [2-Benzoyl-4-tert-butyl-6-aminomethylphenol hydrochloride] | 47.6 | –
6 | CC(C)(C)c1cc(CN)c(O)c(C(=O)CCl)c1 [2-Chloroacetyl-4-tert-butyl-6-aminomethylphenol hydrochloride] | 59.2 | –
7 | CCC(=O)c1cc(C(C)(C)C)cc(CN)c1O.Cl [2-Propionyl-4-tert-butyl-6-aminomethylphenol hydrochloride] | 72.8 | sign of ulcer (ulcer in rats): did not show any sign of ulcer; % Inhibition (acetic acid stretching) ([2]; 10 mg/kg): 35.3%; % Inhibition (acetic acid stretching) ([2]; 20 mg/kg): 61.3%; % Inhibition (acetic acid stretching) ([2]; 50 mg/kg): 85.3%; % Inhibition (Randall-Selitto pain threshold change) ([3]; 50 mg/kg): 70%; % Inhibition (Randall-Selitto pain threshold change) ([3]; 100 mg/kg): 113%
8 | CCC(=O)c1c(O)c(CN)cc2c1CCCC2 [1-Propionyl-3-aminomethyl-5,6,7,8-tetrahydro-2-naphthol hydrochloride] | 37.4 | –
9 | CCCC(=O)c1cc(C(C)(C)C)cc(CN)c1O [2-Butyryl-4-tert-butyl-6-aminomethylphenol hydrochloride] | 34.1 | –
10 | CC(C)C(=O)c1cc(C(C)(C)C)cc(CN)c1O.Cl [2-Isobutyryl-4-tert-butyl-6-aminomethylphenol hydrochloride] | 55.5 | % Inhibition (acetic acid stretching) ([2]; 50 mg/kg): 49.7%
11 | CC(C)(C)c1cc(CN)c(O)c(C(=O)c2ccc(Br)cc2)c1 [2-(4-Bromobenzoyl)-4-tert-butyl-6-aminomethylphenol hydrochloride] | 35 | –
12 | CC(=O)c1cc2c(c(CN)c1O)CCCC2C (centres unmarked) [1-Aminomethyl-3-acetyl-5-methyl-5,6,7,8-tetrahydro-2-naphthol hydrochloride] | 66.3 | –
13 | CC(C)(C)c1cc(CN)c(O)c(C(=O)C2CCCCC2)c1 [2-Cyclohexylcarbonyl-4-tert-butyl-6-aminomethylphenol hydrochloride] | 27.1 | –
